Laboratory results published in patent EP4273147A1, “SUBSTITUTED SPIROLACTAMS, SALTS THEREOF AND THEIR USE AS HERBICIDALLY ACTIVE SUBSTANCES” (Bayer Aktiengesellschaft, priority 2022, dated 2023).

Tests used:
ABUTH [1] = test: Herbicidal pre-emergence action (Table A1); assay type: in vivo, Abutilon theophrasti; settings: application rate 320 g/ha; visual grading after ca. 3 weeks vs untreated controls (100% = plants have died off, 0% = as control plants)
In short: (§1)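 Seeds of monocot and dicot weeds were sown in pots of sandy loam and covered with soil. Each pot held a double sowing: one monocotyledonous plus one dicotyledonous species.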

ECHCG [2] = test: Herbicidal pre-emergence action (Table A2); assay type: in vivo, Echinochloa crus-galli; settings: application rate 320 g/ha; visual grading after ca. 3 weeks
In short: as §1

LOLRI [3] = test: Herbicidal pre-emergence action (Table A3); assay type: in vivo, Lolium rigidum; settings: application rate 320 g/ha; visual grading after ca. 3 weeks
In short: as §1

MATIN [4] = test: Herbicidal pre-emergence action (Table A4); assay type: in vivo, Matricaria inodora; settings: application rate 320 g/ha; visual grading after ca. 3 weeks
In short: as §1

SETVI [5] = test: Herbicidal pre-emergence action (Table A5); assay type: in vivo, Setaria viridis; settings: application rate 320 g/ha; visual grading after ca. 3 weeks
In short: as §1

STEME [6] = test: Herbicidal pre-emergence action (Table A6); assay type: in vivo, Stellaria media; settings: application rate 320 g/ha; visual grading after ca. 3 weeks
In short: as §1

POAAN [7] = test: Herbicidal pre-emergence action (Table A7); assay type: in vivo, Poa annua; settings: application rate 320 g/ha; visual grading after ca. 3 weeks
In short: as §1

AMARE [8] = test: Herbicidal pre-emergence action (Table A8); assay type: in vivo, Amaranthus retroflexus; settings: application rate 1280 g/ha; visual grading after ca. 3 weeks vs untreated controls (100% = plants have died off, 0% = as control plants)
In short: as §1

ALOMY [9] = test: Herbicidal pre-emergence action (Table A9); assay type: in vivo, Alopecurus myosuroides; settings: application rate 320 g/ha; visual grading after ca. 3 weeks
In short: as §1

KCHSC = test: Herbicidal pre-emergence action (Table A10); assay type: in vivo, Kochia scoparia; settings: application rate 1280 g/ha; visual grading after ca. 3 weeks
In short: as §1

VERPE [10] = test: Herbicidal pre-emergence action (Table A11); assay type: in vivo, Veronica persica; settings: application rate 320 g/ha; visual grading after ca. 3 weeks
In short: as §1

ABUTH [11] = test: Herbicidal post-emergence action (Table B1); assay type: in vivo, Abutilon theophrasti; settings: application rate 1280 g/ha; treated at one-leaf stage; rated visually after about 3 weeks vs untreated controls (100% = plants have died, 0% = like control plants)
Procedure: (§2) Seeds of mono- and dicotyledonous weed plants were placed in plastic pots in sandy loam soil (doubly sown with in each case one species of mono- or dicotyledonous weed plants per pot), covered with soil and cultivated in a greenhouse under controlled growth conditions. 2 to 3 weeks after sowing, the test plants were treated at the one-leaf stage. […] After the test plants had been kept in the greenhouse under optimum growth conditions for about 3 weeks, the activity of the preparations was rated visually in comparison to untreated controls. For example, 100% activity = the plants have died, 0% activity = like control plants.

ALOMY [12] = test: Herbicidal post-emergence action (Table B2); assay type: in vivo, Alopecurus myosuroides; settings: application rate 320 g/ha; rated visually after about 3 weeks
Procedure: as §2

ECHCG [13] = test: Herbicidal post-emergence action (Table B3); assay type: in vivo, Echinochloa crus-galli; settings: application rate 320 g/ha; rated visually after about 3 weeks
In short: (§3)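 Visual rating against untreated plants (0% = as control, 100% = dead) made roughly 3 weeks after application. Weed species were grown in sandy loam pots under greenhouse conditions and sprayed at the one-leaf stage, 2–3 weeks post-sowing.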

LOLRI [14] = test: Herbicidal post-emergence action (Table B5); assay type: in vivo, Lolium rigidum; settings: application rate 1280 g/ha; rated visually after about 3 weeks
Procedure: as §2

MATIN [15] = test: Herbicidal post-emergence action (Table B6); assay type: in vivo, Matricaria inodora; settings: application rate 1280 g/ha; rated visually after about 3 weeks
In short: as §3

POAAN [16] = test: Herbicidal post-emergence action (Table B7); assay type: in vivo, Poa annua; settings: application rate 320 g/ha
In short: as §3

SETVI [17] = test: Herbicidal post-emergence action (Table B8); assay type: in vivo, Setaria viridis; settings: application rate 1280 g/ha
In short: as §3

STEME [18] = test: Herbicidal post-emergence action (Table B9); assay type: in vivo, Stellaria media; settings: application rate 1280 g/ha
Procedure: as §2

VERPE [19] = test: Herbicidal post-emergence action (Table B10); assay type: in vivo, Veronica persica; settings: application rate 320 g/ha
In short: as §3

AMARE [20] = test: Herbicidal post-emergence action (Table B11); assay type: in vivo, Amaranthus retroflexus; settings: application rate 1280 g/ha
Procedure: as §2

ABUTH [21] = test: Herbicidal pre-emergence action, section C (Table C1); assay type: in vivo, Abutilon theophrasti; settings: application rate 320 g/ha; visual grading after ca. 3 weeks
ALOMY [22] = test: Herbicidal pre-emergence action, section C (Table C2); assay type: in vivo, Alopecurus myosuroides; settings: application rate 320 g/ha; visual grading after ca. 3 weeks
ECHCG [23] = test: Herbicidal pre-emergence action, section C (Table C6); assay type: in vivo, Echinochloa crus-galli; settings: application rate 80 g/ha; visual grading after ca. 3 weeks
LOLRI [24] = test: Herbicidal pre-emergence action, section C (Table C7); assay type: in vivo, Lolium rigidum; settings: application rate 80 g/ha; visual grading after ca. 3 weeks
MATIN [25] = test: Herbicidal pre-emergence action, section C (Table C8); assay type: in vivo, Matricaria inodora; settings: application rate 320 g/ha; visual grading after ca. 3 weeks
POLCO = test: Herbicidal pre-emergence action, section C (Table C9); assay type: in vivo, Polygonum convolvulus; settings: application rate 320 g/ha; visual grading after ca. 3 weeks
SETVI [26] = test: Herbicidal pre-emergence action, section C (Table C10); assay type: in vivo, Setaria viridis; settings: application rate 80 g/ha; visual grading after ca. 3 weeks
VERPE [27] = test: Herbicidal pre-emergence action, section C (Table C11); assay type: in vivo, Veronica persica; settings: application rate 320 g/ha; visual grading after ca. 3 weeks
VIOTR [28] = test: Herbicidal pre-emergence action, section C (Table C12); assay type: in vivo, Viola tricolor; settings: application rate 80 g/ha; visual grading after ca. 3 weeks
TRZAS [29] = test: Pre-emergence effects on crop plants (Table D2); assay type: in vivo, Triticum aestivum; settings: crop plant; application rate 80 g/ha; visual grading after ca. 3 weeks
BRSNW [30] = test: Pre-emergence effects on crop plants (Table D5); assay type: in vivo, Brassica napus; settings: crop plant; application rate 80 g/ha; visual grading after ca. 3 weeks
ALOMY [31] = test: Herbicidal post-emergence action, section E (Table E2); assay type: in vivo, Alopecurus myosuroides; settings: application rate 320 g/ha; assessed visually after ca. 3 weeks
From the text: (§4) 2 to 3 weeks after sowing, the test plants were sprayed in the single-leaf stage.

ECHCG [32] = test: Herbicidal post-emergence action, section E (Table E5); assay type: in vivo, Echinochloa crus-galli; settings: application rate 80 g/ha; assessed visually after ca. 3 weeks
From the text: as §4

SETVI [33] = test: Herbicidal post-emergence action, section E (Table E8); assay type: in vivo, Setaria viridis; settings: application rate 320 g/ha; assessed visually after ca. 3 weeks
From the text: as §4

VERPE [34] = test: Herbicidal post-emergence action, section E (Table E9); assay type: in vivo, Veronica persica; settings: application rate 320 g/ha; assessed visually after ca. 3 weeks
From the text: as §4

VIOTR [35] = test: Herbicidal post-emergence action, section E (Table E10); assay type: in vivo, Viola tricolor; settings: application rate 320 g/ha; assessed visually after ca. 3 weeks
From the text: as §4

ZEAMX = test: Post-emergence effects on crop plants (Table F1); assay type: in vivo, Zea mays; settings: application rate 80 g/ha, crop plant ZEAMX
From the text: as §4

TRZAS [36] = test: Post-emergence effects on crop plants (Table F2); assay type: in vivo, Triticum aestivum; settings: application rate 80 g/ha, crop plant TRZAS
From the text: as §4

ORYZA [37] = test: Post-emergence effects on crop plants (Table F3); assay type: in vivo, Oryza sativa; settings: application rate 320 g/ha, crop plant ORYZA
From the text: as §4

GLXMA = test: Post-emergence effects on crop plants (Table F4); assay type: in vivo, Glycine max; settings: application rate 80 g/ha, crop plant GLXMA
From the text: as §4

BRSNW [38] = test: Post-emergence effects on crop plants (Table F5); assay type: in vivo, Brassica napus; settings: application rate 80 g/ha, crop plant BRSNW
From the text: as §4

ORYZA [39] = test: Pre-emergence effects on crop plants (Table D3); settings: crop plant; application rate 80 g/ha; visual grading after ca. 3 weeks

- pre-emergence activity against TRZAS (TRZAS [29]): 20%
- pre-emergence activity against BRSNW (BRSNW [30]): 0%
- pre-emergence activity against ORYZA (ORYZA [39]): 20%
SMILES: O=C1N(Cc2ccccc2F)CCCC12CCCN(Cc1ccccc1F)C2=O (racemic) [I-005]
- pre-emergence activity against ABUTH (ABUTH [1]): 90%
- pre-emergence activity against ECHCG (ECHCG [2]): 100%
- pre-emergence activity against LOLRI (LOLRI [3]): 100%
- pre-emergence activity against MATIN (MATIN [4]): 100%
- pre-emergence activity against SETVI (SETVI [5]): 100%
- pre-emergence activity against STEME (STEME [6]): 90%
- pre-emergence activity against POAAN (POAAN [7]): 100%
- pre-emergence activity against AMARE (AMARE [8]): 90%
- pre-emergence activity against ALOMY (ALOMY [9]): 90%
- pre-emergence activity against KCHSC (KCHSC): 90%
- pre-emergence activity against VERPE (VERPE [10]): 100%
- post-emergence activity against ABUTH (ABUTH [11]): 90%
- post-emergence activity against ALOMY (ALOMY [12]): 90%
- post-emergence activity against ECHCG (ECHCG [13]): 100%
- post-emergence activity against LOLRI (LOLRI [14]): 90%
- post-emergence activity against MATIN (MATIN [15]): 100%
- post-emergence activity against POAAN (POAAN [16]): 100%
- post-emergence activity against SETVI (SETVI [17]): 100%
- post-emergence activity against STEME (STEME [18]): 90%
- post-emergence activity against VERPE (VERPE [19]): 90%
- post-emergence activity against AMARE (AMARE [20]): 100%
- pre-emergence activity against ABUTH (ABUTH [21]): 80%
- pre-emergence activity against ALOMY (ALOMY [22]): 100%
- pre-emergence activity against ECHCG (ECHCG [23]): 100%
- pre-emergence activity against LOLRI (LOLRI [24]): 80%
- pre-emergence activity against MATIN (MATIN [25]): 90%
- pre-emergence activity against POLCO (POLCO): 80%
- pre-emergence activity against SETVI (SETVI [26]): 100%
- pre-emergence activity against VERPE (VERPE [27]): 80%
- pre-emergence activity against VIOTR (VIOTR [28]): 80%
- post-emergence activity against ALOMY (ALOMY [31]): 90%
- post-emergence activity against ECHCG (ECHCG [32]): 80%
- post-emergence activity against SETVI (SETVI [33]): 90%
- post-emergence activity against VERPE (VERPE [34]): 80%
- post-emergence activity against VIOTR (VIOTR [35]): 80%
- post-emergence activity against ZEAMX (ZEAMX): 20%
- post-emergence activity against TRZAS (TRZAS [36]): 20%
- post-emergence activity against ORYZA (ORYZA [37]): 0%
- post-emergence activity against GLXMA (GLXMA): 20%
- post-emergence activity against BRSNW (BRSNW [38]): 20%
